One test concerns the target T1, caspase-8 (Homo sapiens, UniProt Q14790).
T1 construct: p10 and p20 subunits (Thornberry, N. A. et al, Nature, 1992, 356, 768) were expressed in E. coli; made in house; host or cells: E. coli
The test is described as follows: Caspase-8 inhibitory effect (fluorescent substrate AcDEVD-AFC). In kind it is biochemical. Particulars: 25° C., 50 μM AcDEVD-AFC, 2.1 nM caspase-8; for kinact/KI: pH 7.5, read-out: Caspase-8 Kobs/[I] (converted). The procedure:
Caspase-1 and caspase-8 known as cysteine proteases in the form of α2β2 were expressed, purified, and activated by modifying a method known in Thornberry, N. A. et al, Nature, 1992, 356, 768. Thornberry, N. A. Methods in Enzymology, 1994, 244, 615. Walker, N. P. C. et al. Cell, 1994, 78, 343, and caspase-9 was also purified by a similar method, and the inhibitory activity against them was tested. Briefly describing, p10 and p20 subunits (Thornberry, N. A. et al, Nature, 1992, 356, 768) were expressed in E. coli and purified by nickel column and anionic exchange chromatography to give caspase-1, caspase-8 and caspase-9. The fluorescent substrate AcYVAD-AFC for thus obtained caspase-1, AcDEVD-AFC for caspase-8, and AcLEHD-AFC for caspase-9 were used for determining specific activity of the synthesized inhibitors. The enzyme reaction was carried out at 25° C. with various concentrations of the inhibitors in a buffer solution containing 50 mM HEPES(pH 7.50), 10% (w/v) sucrose, 0.1% (w/v) CHAPS, 100 mM NaCl, 1 mM EDTA, and 10 mM DTT in the presence of 50 μM AcYVAD-AFC for 10 nM caspase-1, 50 μM AcDEVD-AFC for 2.1 nM caspase-8, and 150 μM AcLEHD-AFC for 200 nM caspase-9. The inhibitory constants Ki and Kobs of the inhibitors were determined by measuring the reaction velocity with the time lapse using a fluorescent spectrometer and by obtaining the initial rate constant. Ki was calculated from the Lineweaver Burk Plot, and Kobs from the following Equation 1. Kobs=−ln(1−At/Aoo)/t Equation 1
At means cleavate rate (%) at time t, and
Aoo means the maximum cleavage rate (%).
Spectra MAX GeminiXS Fluorescent Spectrometer of Molecular Device Co. was used at the excitation wavelength of 405 nm and the emission wavelength of […].

In test [1] the test system is Jurkat cell (ATCC TIB-152). The test is described as follows: Jurkat cell apoptosis by Fas antibody, WST-1 method. In kind it is cell-based. Particulars: apoptosis using Fas antibody, WST-1; for IC50: Homo sapiens, Jurkat. As to the method:
The […] inhibitory activity of the inhibitors was determined by subjecting Jurkat cell (ATCC TIB-152) to apoptosis using Fas antibody (Upstate Biotech 05-201) and by detecting the color change according to the WST-1 method known in Francoeur A. M. and Assalian A. (1996) Biochemica 3, 19-25 to observe the amount of alive Jurkat cells when the cells were treated by the inhibitor. Spectra MAX 340 Spectrometer of Molecular Device Co. was used at the absorbance wavelength of 440 nm.
A general note: Tetrazolium assays rely on reduction of a dye to a coloured formazan, in cell work by metabolically active cells.

T1 sequence (Q14790 217-374 limits assumed, species assumed): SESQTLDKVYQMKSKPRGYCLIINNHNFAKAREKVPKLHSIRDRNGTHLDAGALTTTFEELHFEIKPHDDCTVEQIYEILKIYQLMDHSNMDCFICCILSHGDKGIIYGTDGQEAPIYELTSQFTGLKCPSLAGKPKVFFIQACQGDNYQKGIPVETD
T1 sequence (Q14790 385-479 limits assumed, species assumed): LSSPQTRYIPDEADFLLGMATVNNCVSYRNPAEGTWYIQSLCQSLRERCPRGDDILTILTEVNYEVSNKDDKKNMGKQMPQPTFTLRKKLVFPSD

In the case of `CCC1(C(=O)NC(CC(=O)O)C(=O)CF)CC(c2ccccc2C(C)C)=NO1` (stereo not drawn) [Iaa1, 3-({[5-Ethyl-3-(2-isopropylphenyl)-4,5-dihydro-5-isoxazolyl]carbonyl}amino)-5-fluoro-4-oxopentanoic acid], the kinact/KI on caspase-8 was 3000 M⁻¹ s⁻¹. Further, in test [1], the IC50 (commonly the concentration that gives 50% inhibition) turned out to be 330 nM.

Consider `CCC1(C(=O)NC(CC(=O)O)C(=O)CF)CC(c2cccc(C(C)(C)C)c2)=NO1` (stereo not drawn) [Iaa2, 3-[({3-[3-(tert-Butyl)phenyl]-5-ethyl-4,5-dihydro-5-isoxazolyl}carbonyl)amino]-5-fluoro-4-oxopentanoic acid], for which the kinact/KI at caspase-8 was 5330 M⁻¹ s⁻¹. The half-inhibitory concentration (IC50) in test [1] stood at 560 nM.

As to `CCC1(C(=O)NC(CC(=O)O)C(=O)CF)CC(c2ccc(C(C)(C)C)cc2)=NO1` (stereo not drawn) [Iaa3, 3-[({3-[4-(tert-Butyl)phenyl]-5-ethyl-4,5-dihydro-5-isoxazolyl}carbonyl)amino]-5-fluoro-4-oxopentanoic acid], on caspase-8, the kinact/KI was 2330 M⁻¹ s⁻¹. In addition, the IC50 in test [1] amounted to 2650 nM.

`CC(C)c1ccccc1C1=NO[C@@](C(=O)NC(CC(=O)O)C(=O)CF)(C(C)C)C1` (stereo partly drawn) [Iaa4, 5-Fluoro-3-({[(5R)-5-isopropyl-3-(2-isopropylphenyl)-4,5-dihydro-5-isoxazolyl]carbonyl}amino)-4-oxopentanoic Acid]: the kinact/KI on caspase-8 is 8330 M⁻¹ s⁻¹. The same compound registered an IC50 in test [1] of 670 nM.

For `CC(C)[C@@]1(C(=O)NC(CC(=O)O)C(=O)CF)CC(c2cccc(C(C)(C)C)c2)=NO1` (stereo partly drawn) [Iaa5, 3-[({(5R)-3-[3-(tert-butyl)phenyl]-5-isopropyl-4,5-dihydro-5-isoxazolyl}carbonyl)amino]-5-fluoro-4-oxopentanoic acid], the kinact/KI at caspase-8 is 5000 M⁻¹ s⁻¹. For the same compound, in test [1], inhibition was half-maximal at 300 nM (IC50).

Consider `CC(C)C1(C(=O)NC(CC(=O)O)C(=O)CF)CC(c2cccc(-c3ccccc3)c2)=NO1` (stereo not drawn) [Iaa6, 3-{[(3-[1,1′-biphenyl]-3-yl-5-isopropyl-4,5-dihydro-5-isoxazolyl)carbonyl]amino}-5-fluoro-4-oxopentanoic acid], for which the kinact/KI at caspase-8 is 3330 M⁻¹ s⁻¹. Further, the IC50 in test [1] was 2450 nM.

In the case of `CCC1(C(=O)NC(CC(=O)O)C(=O)CF)CC(c2ccccn2)=NO1` (stereo not drawn) [Iaa7, 3-({[5-Ethyl-3-(2-pyridinyl)-4,5-dihydro-5-isoxazolyl]carbonyl}amino)-5-fluoro-4-oxopentanoic Acid], the kinact/KI on caspase-8 was 733 M⁻¹ s⁻¹. This compound also showed an IC50 in test [1] of 2270 nM.

For the compound `CCC1(C(=O)NC(CC(=O)O)C(=O)CF)CC(c2cc(C(C)(C)C)ccn2)=NO1` (stereo not drawn) [Iaa8, 3-[({3-[4-(tert-Butyl)-2-pyridinyl]-5-ethyl-4,5-dihydro-5-isoxazolyl}carbonyl)amino]-5-fluoro-4-oxopentanoic Acid], at caspase-8, the kinact/KI is 7500 M⁻¹ s⁻¹. For the same compound, the IC50 in test [1] was 700 nM.

For the compound `CC(C)[C@@]1(C(=O)NC(CC(=O)O)C(=O)CF)CC(c2cc(C(C)(C)C)ccn2)=NO1` (stereo partly drawn) [Iaa9, 3-[({(5R)-3-[4-(tert-butyl)-2-pyridinyl]-5-isopropyl-4,5-dihydro-5-isoxazolyl}carbonyl)amino]-5-fluoro-4-oxopentanoic acid], on caspase-8, the kinact/KI is 3830 M⁻¹ s⁻¹. This compound showed an IC50 in test [1] of 1240 nM.

For `CCC1(C(=O)NC(CC(=O)O)C(=O)CF)CC(c2cc(CC(C)C)ccn2)=NO1` (stereo not drawn) [Iaa10, 3-({[5-Ethyl-3-(4-isobutyl-2-pyridinyl)-4,5-dihydro-5-isoxazolyl]carbonyl}amino)-5-fluoro-4-oxopentanoic acid], the kinact/KI at caspase-8 was 2500 M⁻¹ s⁻¹. For the same compound, half-maximal inhibition in test [1] (IC50) was put at 1020 nM.

In the case of `CCC1(C(=O)NC(CC(=O)O)C(=O)CF)CC(c2cc(C(C)=O)ccn2)=NO1` (stereo not drawn) [Iaa11, 3-({[3-(4-Acetyl-2-pyridinyl)-5-ethyl-4,5-dihydro-5-isoxazolyl]carbonyl}amino)-5-fluoro-4-oxopentanoic acid], the kinact/KI at caspase-8 is 1070 M⁻¹ s⁻¹. In test [1], this compound had an IC50 of 31000 nM.

Turning to `CCC1(C(=O)NC(CC(=O)O)C(=O)CF)CC(c2cc(C3CC3)ccn2)=NO1` (stereo not drawn) [Iaa12, 3-({[3-(4-Cyclopropyl-2-pyridinyl)-5-ethyl-4,5-dihydro-5-isoxazolyl]carbonyl}amino)-5-fluoro-4-oxopentanoic acid], at caspase-8, the kinact/KI is 3170 M⁻¹ s⁻¹. In test [1], this compound returned an IC50 of 700 nM.

`CCC1(C(=O)NC(CC(=O)O)C(=O)CF)CC(c2cc(C3CCCC3)ccn2)=NO1` (stereo not drawn) [Iaa13, 3-({[3-(4-Cyclopentyl-2-pyridinyl)-5-ethyl-4,5-dihydro-5-isoxazolyl]carbonyl}amino)-5-fluoro-4-oxopentanoic Acid]: the kinact/KI at caspase-8 is 5170 M⁻¹ s⁻¹. The IC50 in test [1] came to 350 nM.

For the compound `CC(C)[C@@]1(C(=O)NC(CC(=O)O)C(=O)CF)CC(c2cc(C3CCCC3)ccn2)=NO1` (stereo partly drawn) [Iaa14, 3-({[(5R)-3-(4-cyclopentyl-2-pyridinyl)-5-isopropyl-4,5-dihydro-5-isoxazolyl]carbonyl}amino)-5-fluoro-4-oxopentanoic Acid], the kinact/KI on caspase-8 was 6830 M⁻¹ s⁻¹. The IC50 in test [1] is 790 nM.

As for `CCC1(C(=O)NC(CC(=O)O)C(=O)CF)CC(c2cc(C3CCCCC3)ccn2)=NO1` (stereo not drawn) [Iaa15, 3-({[3-(4-Cyclohexyl-2-pyridinyl)-5-ethyl-4,5-dihydro-5-isoxazolyl]carbonyl}amino)-5-fluoro-4-oxopentanoic Acid], the kinact/KI on caspase-8 is 7170 M⁻¹ s⁻¹. Moreover, half-maximal inhibition in test [1] (IC50) was put at 720 nM.

As for `CCC1(C(=O)NC(CC(=O)O)C(=O)CF)CC(c2nccc3c2CCCC3)=NO1` (stereo not drawn) [Iaa16, 3-({[5-Ethyl-3-(5,6,7,8-tetrahydro-1-isoquinolinyl)-4,5-dihydro-5-isoxazolyl]carbonyl}amino)-5-fluoro-4-oxopentanoic acid], the kinact/KI at caspase-8 is 10300 M⁻¹ s⁻¹. The same compound came in with an IC50 in test [1] of 730 nM.

As for `CC(C)C1(C(=O)NC(CC(=O)O)C(=O)CF)CC(c2cc(-c3ccccc3)ccn2)=NO1` (stereo not drawn) [Iaa17, 5-Fluoro-3-({[5-isopropyl-3-(4-phenyl-2-pyridinyl)-4,5-dihydro-5-isoxazolyl]carbonyl}amino)-4-oxopentanoic Acid], the kinact/KI on caspase-8 was 3000 M⁻¹ s⁻¹. The IC50 in test [1] is 1140 nM.

`CC(C)[C@@]1(C(=O)N[C@@H](CC(=O)O)C(=O)COP(=O)(c2ccccc2)c2ccccc2)CC(c2nccc3ccccc23)=NO1` [Iaa18, (3S)-5-[(diphenylphosphoryl)oxy]-3-({[(5R)-5-isopropyl-3-(1-isoquinolinyl)-4,5-dihydro-5-isoxazolyl]carbonyl}amino)-4-oxopentanoic acid]: on caspase-8, the kinact/KI was 8670 M⁻¹ s⁻¹. In test [1], this compound gave an IC50 of 1500 nM.

As for `C=CC(=O)[C@H](CC(=O)O)NC(=O)[C@]1(C(C)C)CC(c2nccc3ccccc23)=NO1` [Iaa22, (3S)-3-({[(5R)-5-isopropyl-3-(1-isoquinolinyl)-4,5-dihydro-5-isoxazolyl]carbonyl}amino)-4-oxo-5-hexenoic acid], the “Caspase-8 Kobs/[I]” value at caspase-8 is “No Activity”.

Regarding `CCC1(C(=O)N[C@@H](CC(=O)O)C(=O)COc2ccccn2)CC(c2ccccc2C(C)C)=NO1` (stereo partly drawn) [Iaa24, (3S)-3-({[5-ethyl-3-(2-isopropylphenyl)-4,5-dihydro-5-isoxazolyl]carbonyl}amino)-4-oxo-5-(2-pyridinyloxy)pentanoic Acid], the “Caspase-8 Kobs/[I]” value on caspase-8 is listed as “No Activity”.

As for `CC(C)[C@@]1(C(=O)N[C@@H](CC(=O)O)C(=O)CF)CC(c2nccc3ccccc23)=NO1` [Iii-1, (3S)-5-fluoro-3-({[(5R)-5-isopropyl-3-(1-isoquinolinyl)-4,5-dihydro-5-isoxazolyl]carbonyl}amino)-4-oxopentanoic acid], the kinact/KI on caspase-8 is 383000 M⁻¹ s⁻¹.

For the compound `CC(C)[C@@]1(C(=O)N[C@H](CC(=O)O)C(=O)CF)CC(c2nccc3ccccc23)=NO1` [Iii-2, (3R)-5-fluoro-3-({[(5R)-5-isopropyl-3-(1-isoquinolinyl)-4,5-dihydro-5-isoxazolyl]carbonyl}amino)-4-oxopentanoic acid], the kinact/KI at caspase-8 was 7830 M⁻¹ s⁻¹.

With `CCOC(=O)/C=C/[C@H](CC(=O)O)NC(=O)[C@]1(C(C)C)CC(c2nccc3ccccc23)=NO1` [Irr, (3S,4E)-6-ethoxy-3-({[(5R)-5-isopropyl-3-(1-isoquinolinyl)-4,5-dihydro-5-isoxazolyl]carbonyl}amino)-6-oxo-4-hexenoic Acid], in test [1], the “Jurkat cell IC50” value is “No Activity”.

`CC(C)[C@@]1(C(=O)N[C@H](/C=C/S(C)(=O)=O)CC(=O)O)CC(c2nccc3ccccc23)=NO1` [Iss, (3S,4E)-3-({[(5R)-5-isopropyl-3-(1-isoquinolinyl)-4,5-dihydro-5-isoxazolyl]carbonyl}amino)-5-(methylsulfonyl)-4-pentenoic acid]: the “Jurkat cell IC50” value in test [1] is listed as “No Activity”.

The record behind these values is US7557133B2, “Caspase inhibitors containing isoxazoline ring” (LG Life Sciences Ltd., priority 2003, dated 2009).
